Literature values in patent publication US12042505B2, “Compositions and methods for treating dry eye” (priority 2021, dated 2024).

Details: for side effects: background statement on marketed drug

Row | Structure (SMILES) | side effects | absorption in the gastrointestinal tract (background statement) | hydrolysis by cholinesterase (background statement)
1 | CN(C)C(=O)Oc1ccc[n+](C)c1 [Pyridostigmine] | dizziness, drowsiness, lightheadedness, headache, nausea, vomiting, abdominal cramps/pain, diarrhea, increased salivation or urination, headache, slow heart rate followed by fast heart rate, and sweating |  | 
2 | CC[C@@H]1C(=O)OC[C@@H]1Cc1cncn1C [Pilocarpine] | miosis, blurred vision, pupillary spasms; topically, it also results in burning and stinging |  | 
3 | C[N+](C)(C)CCOC(N)=O [Carbachol] | miosis that can diminish ocular focus | not well absorbed in the gastrointestinal tract | 
4 | CC(C[N+](C)(C)C)OC(N)=O (stereo not shown) [Bethanechol] | dizziness, drowsiness, lightheadedness, headache, nausea, vomiting, abdominal cramps/pain, diarrhea, increased salivation or urination, headache, slow heart rate followed by fast heart rate, and sweating |  | not hydrolyzed by cholinesterase
5 | CC1OC2(CS1)CN1CCC2CC1 (stereo not shown) [Cevimeline] | bladder pain, nausea, vomiting, diarrhea, sweating, rash, headache, runny nose, drowsiness, hot flashes, blurred vision, difficulty sleeping |  | 
